These are literature values, as cited in US20210220374A1, “METHODS OF TREATING TE[…]” (Clarus Therapeutics, Inc., priority 2013, published 2021).

The conditions of the series: cited from earlier work.

Turning to `C[C@]12CCC(=O)C=C1CC[C@@H]1[C@@H]2CC[C@@]2(C)[C@H]1CC[C@]2(C)O` [methyltestosterone], for the setting “oral therapy”, the Liver toxicity entry was “significant occurrence of liver toxicity”.

On to `C[C@]12CC[C@H]3[C@@H](CCC4=CC(=O)CC[C@@]43C)[C@@H]1CC[C@@H]2O` [testosterone], for which the “Serum half-life of testosterone in men” value (in vivo) is 10 to 100 min.
